Data reported in patent US20250179061A1 (SIRONAX LTD., priority 2022, published 2025).

The compounds below were run on HT-29 cells (assay: HT-29 necroptosis cell viability assay (TNF-α/SMAC mimetic/zVAD-FMK, CellTiter-Glo)). Details: Homo sapiens, HT-29, HT-29 necroptosis cell viability assay; class symbols for IC50; read-out: Activity.
Format: cell-based
Method in brief: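 HT-29 cells (~5,000/well, overnight) in FBS-free McCoy's 5A with TNF-α 10 ng/ml, SMAC mimetic 6 μM and zVAD-FMK 10 μM plus 10-point 1:3 compound titration, 20 h at 37°C. ATP measured by CellTiter-Glo luminescence; IC50 as geometric mean of duplicates.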

SMILES | IC50
Cc1nc(C(N)=O)c(C)n1Cc1ccc(-n2ncn(Cc3c(F)cccc3F)c2=O)cc1F [Example 217, 1-(4-(4-(2,6-difluorobenzyl)-5-oxo-4,5-dihydro-1H-1,2,4-triazol-1-yl)-2-fluorobenzyl)-2,5-dimethyl-1H-imidazole-4-carboxamide] | 100 to 1000 nM
Cc1nc(C)n(Cc2ccc(-n3ncn(Cc4c(F)cccc4F)c3=O)cc2F)c1C(N)=O [Example 218, 1-(4-(4-(2,6-difluorobenzyl)-5-oxo-4,5-dihydro-1H-1,2,4-triazol-1-yl)-2-fluorobenzyl)-2,4-dimethyl-1H-imidazole-5-carboxamide] | 100 to 1000 nM
Cc1cc(C(N)=O)c(C)n1Cc1ccc(-n2ncn(Cc3c(F)cccc3F)c2=O)cc1F [Example 219, 1-(4-(4-(2,6-difluorobenzyl)-5-oxo-4,5-dihydro-1H-1,2,4-triazol-1-yl)-2-fluorobenzyl)-2,5-dimethyl-1H-pyrrole-3-carboxamide] | < 100 nM
Cc1nc(CO)cn1Cc1ccc(-n2nc3n(c2=O)C(c2ccccc2)CC3)cc1F (stereo not shown) [Example 220, 2-(3-fluoro-4-((4-(hydroxymethyl)-2-methyl-1H-imidazol-1-yl)methyl)phenyl)-5-phenyl-2,5,6,7-tetrahydro-3H-pyrrolo[2,1-c][1,2,4]triazol-3-one] | 100 to 1000 nM
Cc1cc(CO)n(Cc2ccc(-n3nc4n(c3=O)C(c3ccccc3)CC4)cc2F)n1 (stereo not shown) [Example 221, 2-(3-fluoro-4-((5-(hydroxymethyl)-3-methyl-1H-pyrazol-1-yl)methyl)phenyl)-5-phenyl-2,5,6,7-tetrahydro-3H-pyrrolo[2,1-c][1,2,4]triazol-3-one] | 1000 to 10000 nM
Cc1cn(Cc2ccc(-n3nc4n(c3=O)C(c3ccccc3)CC4)cc2F)c(C)c1C(N)=O (stereo not shown) [Example 222, 1-(2-fluoro-4-(3-oxo-5-phenyl-6,7-dihydro-3H-pyrrolo[2,1-c][1,2,4]triazol-2(5H)-yl)benzyl)-2,4-dimethyl-1H-pyrrole-3-carboxamide] | < 100 nM

Same assay, conditions: Homo sapiens, HT-29, HT-29 necroptosis cell viability, IC50 class symbols; read-out: Activity

SMILES | IC50
Nc1cc(Oc2ccc(-n3ncn(Cc4c(F)cccc4F)c3=O)cc2F)c(F)cn1 [Example 223, 2-(4-((2-amino-5-fluoropyridin-4-yl)oxy)-3-fluorophenyl)-4-(2,6-difluorobenzyl)-2,4-dihydro-3H-1,2,4-triazol-3-one] | 100 to 1000 nM
CC1(C#N)CN(c2nccc(Oc3ccc(-n4ncn(Cc5c(F)cccc5F)c4=O)cc3Cl)c2F)C1 [Example 224, 1-(4-(2-chloro-4-(4-(2,6-difluorobenzyl)-5-oxo-4,5-dihydro-1H-1,2,4-triazol-1-yl)phenoxy)-3-fluoropyridin-2-yl)-3-methylazetidine-3-carbonitrile] | < 100 nM
Cc1cnc(N2CC(C)(C#N)C2)nc1Oc1ccc(-n2ncn(Cc3c(F)cccc3F)c2=O)cc1F [Example 225, 1-[4-(4-{4-[(2,6-difluorophenyl)methyl]-5-oxo-1,2,4-triazol-1-yl}-2-fluorophenoxy)-5-methylpyrimidin-2-yl]-3-methylazetidine-3-carbonitrile] | 100 to 1000 nM
CC1(C#N)CN(c2nccc(Oc3ccc(-n4ncn(Cc5c(F)cccc5F)c4=O)cc3F)c2F)C1 [Example 226, 1-(4-(4-(4-(2,6-difluorobenzyl)-5-oxo-4,5-dihydro-1H-1,2,4-triazol-1-yl)-2-fluorophenoxy)-3-fluoropyridin-2-yl)-3-methylazetidine-3-carbonitrile] | < 100 nM
Cc1c(Oc2ccc(-n3ncn(Cc4c(F)cccc4F)c3=O)cc2F)ccnc1N1CC(C)(C#N)C1 [Example 227, 1-(4-(4-(4-(2,6-difluorobenzyl)-5-oxo-4,5-dihydro-1H-1,2,4-triazol-1-yl)-2-fluorophenoxy)-3-methylpyridin-2-yl)-3-methylazetidine-3-carbonitrile] | < 100 nM
Cc1cnc(N2CCC(C)(C#N)C2)cc1Oc1ccc(-n2ncn(Cc3c(F)cccc3F)c2=O)cc1F (stereo not shown) [Example 228, 1-(4-(4-(4-(2,6-difluorobenzyl)-5-oxo-4,5-dihydro-1H-1,2,4-triazol-1-yl)-2-fluorophenoxy)-5-methylpyridin-2-yl)-3-methylpyrrolidine-3-carbonitrile] | < 100 nM
COC1(C#N)CN(c2cc(Oc3ccc(-n4ncn(Cc5c(F)cccc5F)c4=O)cc3F)c(F)cn2)C1 [Example 230, 1-(4-(4-(4-(2,6-difluorobenzyl)-5-oxo-4,5-dihydro-1H-1,2,4-triazol-1-yl)-2-fluorophenoxy)-5-fluoropyridin-2-yl)-3-methoxyazetidine-3-carbonitrile] | < 100 nM
COC1(C#N)CN(c2cc(Oc3ccc(-n4ncn(Cc5c(F)cccc5F)c4=O)cc3F)c(Cl)cn2)C1 [Example 231, 1-(5-chloro-4-(4-(4-(2,6-difluorobenzyl)-5-oxo-4,5-dihydro-1H-1,2,4-triazol-1-yl)-2-fluorophenoxy)pyridin-2-yl)-3-methoxyazetidine-3-carbonitrile] | < 100 nM
C[C@H]1[C@H](C#N)CN1c1cc(Oc2ccc(-n3ncn(Cc4c(F)cccc4F)c3=O)cc2F)c(F)cn1 [Example 232, (2S,3R)-1-(4-(4-(4-(2,6-difluorobenzyl)-5-oxo-4,5-dihydro-1H-1,2,4-triazol-1-yl)-2-fluorophenoxy)-5-fluoropyridin-2-yl)-2-methylazetidine-3-carbonitrile] | < 100 nM
C[C@H]1[C@H](C#N)CN1c1cc(Oc2ccc(-n3ncn(Cc4c(F)cccc4F)c3=O)cc2F)c(Cl)cn1 [Example 233, (2S,3R)-1-(5-chloro-4-(4-(4-(2,6-difluorobenzyl)-5-oxo-4,5-dihydro-1H-1,2,4-triazol-1-yl)-2-fluorophenoxy)pyridin-2-yl)-2-methylazetidine-3-carbonitrile] | < 100 nM
CCOC1CN(c2ncnc(Oc3ccc(-n4ncn(Cc5c(F)cccc5F)c4=O)cc3)c2F)C1 [Example 234, 4-(2,6-difluorobenzyl)-2-(4-((6-(3-ethoxyazetidin-1-yl)-5-fluoropyrimidin-4-yl)oxy)phenyl)-2,4-dihydro-3H-1,2,4-triazol-3-one] | 100 to 1000 nM
CCOC1CN(c2nccc(Oc3ccc(-n4ncn(Cc5c(F)cccc5F)c4=O)cc3)c2C)C1 [Example 236, 4-(2,6-difluorobenzyl)-2-(4-((2-(3-ethoxyazetidin-1-yl)-3-methylpyridin-4-yl)oxy)phenyl)-2,4-dihydro-3H-1,2,4-triazol-3-one] | < 100 nM
O=c1n(Cc2c(F)cccc2F)cnn1-c1ccc(Oc2cc(N3CC4(COC4)C3)ncc2F)c(F)c1 [Example 237, 4-(2,6-difluorobenzyl)-2-(3-fluoro-4-((5-fluoro-2-(2-oxa-6-azaspiro[3.3]heptan-6-yl)pyridin-4-yl)oxy)phenyl)-2,4-dihydro-3H-1,2,4-triazol-3-one] | < 100 nM
CC1(C#N)CN(c2nccc(Oc3ccc(-n4ncn(Cc5c(F)cccc5F)c4=O)cc3F)c2Cl)C1 [Example 238, 1-(3-chloro-4-(4-(4-(2,6-difluorobenzyl)-5-oxo-4,5-dihydro-1H-1,2,4-triazol-1-yl)-2-fluorophenoxy)pyridin-2-yl)-3-methylazetidine-3-carbonitrile] | < 100 nM
COC1(C#N)CN(c2cc(Oc3ccc(-n4ncn(Cc5c(F)cccc5F)c4=O)cc3F)c(C)cn2)C1 [Example 239, 1-(4-(4-(4-(2,6-difluorobenzyl)-5-oxo-4,5-dihydro-1H-1,2,4-triazol-1-yl)-2-fluorophenoxy)-5-methylpyridin-2-yl)-3-methoxyazetidine-3-carbonitrile] | < 100 nM
C[C@H]1C[C@@H](C#N)CN1c1cc(Oc2ccc(-n3ncn(Cc4c(F)cccc4F)c3=O)cc2F)c(Cl)cn1 [Example 240, (3R,5S)-1-(5-chloro-4-(4-(4-(2,6-difluorobenzyl)-5-oxo-4,5-dihydro-1H-1,2,4-triazol-1-yl)-2-fluorophenoxy)pyridin-2-yl)-5-methylpyrrolidine-3-carbonitrile] | < 100 nM
C[C@H]1[C@@H](N(C)C)CN1c1cc(Oc2ccc(-n3ncn(Cc4c(F)cccc4F)c3=O)cc2F)c(F)cn1 [Example 241, 4-(2,6-difluorobenzyl)-2-(4-((2-((2S,3S)-3-(dimethylamino)-2-methylazetidin-1-yl)-5-fluoropyridin-4-yl)oxy)-3-fluorophenyl)-2,4-dihydro-3H-1,2,4-triazol-3-one] | < 100 nM
C[C@H]1[C@@H](C#N)CN1c1nccc(Oc2ccc(-n3ncn(Cc4c(F)cccc4F)c3=O)cc2)c1F [Example 242, (2S,3S)-1-(4-(4-(4-(2,6-difluorobenzyl)-5-oxo-4,5-dihydro-1H-1,2,4-triazol-1-yl)phenoxy)-3-fluoropyridin-2-yl)-2-methylazetidine-3-carbonitrile] | < 100 nM
CCCOC1CN(c2cc(Oc3ccc(-n4ncn(Cc5c(F)cccc5F)c4=O)cc3)ccn2)C1 [Example 243, 4-(2,6-difluorobenzyl)-2-(4-((2-(3-propoxyazetidin-1-yl)pyridin-4-yl)oxy)phenyl)-2,4-dihydro-3H-1,2,4-triazol-3-one] | < 100 nM
C[C@H]1COCCN1c1cc(Oc2ccc(-n3ncn(Cc4c(F)cccc4F)c3=O)cc2)ccn1 [Example 244, (S)-4-(2,6-difluorobenzyl)-2-(4-((2-(3-methylmorpholino)pyridin-4-yl)oxy)phenyl)-2,4-dihydro-3H-1,2,4-triazol-3-one] | 100 to 1000 nM
O=c1n(Cc2c(F)cccc2F)cnn1-c1ccc(Oc2ccnc(N3CCC34COC4)c2)cc1 [Example 245, 2-(4-((2-(6-oxa-1-azaspiro[3.3]heptan-1-yl)pyridin-4-yl)oxy)phenyl)-4-(2,6-difluorobenzyl)-2,4-dihydro-3H-1,2,4-triazol-3-one] | 100 to 1000 nM
N#CC12CC(Nc3nccc(Oc4ccc(-n5ncn(Cc6c(F)cccc6F)c5=O)cc4F)c3F)(C1)C2 [Example 246, 3-((4-(4-(4-(2,6-difluorobenzyl)-5-oxo-4,5-dihydro-1H-1,2,4-triazol-1-yl)-2-fluorophenoxy)-3-fluoropyridin-2-yl)amino)bicyclo[1.1.1]pentane-1-carbonitrile] | < 100 nM
